Experimental data as given in paper PMC10819570, “Design, Synthesis, and Biological Evaluation of 2-Substituted Aniline Pyrimidine Derivatives as Potent Dual Mer/c-Met Inhibitors” (Molecules, 2024).
Entries after “also recorded” stand apart in the source; their conditions may differ.

Tests used:
[1] = tested on: MDA-MB-231 cells; experiment: Antiproliferation assay (CCK-8), MDA-MB-231; format: cell-based
Experimental: (§1) The antiproliferative activities of the compounds against HepG2, MDA-MB-231, and HCT116 cell lines were tested by the standard CCK-8 method. Cell viability was measured by Cell Counting Kit-8 (Meilunbio, Dalian, China) according to the manufacturer’s instructions. Briefly, cancer cells were seeded into 96-well plates at a density of 2.5 × 10^3 cells per well. […] Subsequently, CCK-8 solution was added into each well and incubated for an additional 2 h. The absorbance at 450 nm was determined in each well using the BioTek Synergy HTX microplate reader. The assay was performed in triplicate, and each experiment was repeated three times.

[2] = target: T1, hERG potassium currents (Homo sapiens, UniProt Q12809); experiment: hERG potassium currents assay (automated whole-cell patch clamp, CHO cells); format: cell-based; details: CHO cells stably expressing hERG, QPatch
T1 construct: expressed in transfected cells
T1 sequence (Q12809 whole entry): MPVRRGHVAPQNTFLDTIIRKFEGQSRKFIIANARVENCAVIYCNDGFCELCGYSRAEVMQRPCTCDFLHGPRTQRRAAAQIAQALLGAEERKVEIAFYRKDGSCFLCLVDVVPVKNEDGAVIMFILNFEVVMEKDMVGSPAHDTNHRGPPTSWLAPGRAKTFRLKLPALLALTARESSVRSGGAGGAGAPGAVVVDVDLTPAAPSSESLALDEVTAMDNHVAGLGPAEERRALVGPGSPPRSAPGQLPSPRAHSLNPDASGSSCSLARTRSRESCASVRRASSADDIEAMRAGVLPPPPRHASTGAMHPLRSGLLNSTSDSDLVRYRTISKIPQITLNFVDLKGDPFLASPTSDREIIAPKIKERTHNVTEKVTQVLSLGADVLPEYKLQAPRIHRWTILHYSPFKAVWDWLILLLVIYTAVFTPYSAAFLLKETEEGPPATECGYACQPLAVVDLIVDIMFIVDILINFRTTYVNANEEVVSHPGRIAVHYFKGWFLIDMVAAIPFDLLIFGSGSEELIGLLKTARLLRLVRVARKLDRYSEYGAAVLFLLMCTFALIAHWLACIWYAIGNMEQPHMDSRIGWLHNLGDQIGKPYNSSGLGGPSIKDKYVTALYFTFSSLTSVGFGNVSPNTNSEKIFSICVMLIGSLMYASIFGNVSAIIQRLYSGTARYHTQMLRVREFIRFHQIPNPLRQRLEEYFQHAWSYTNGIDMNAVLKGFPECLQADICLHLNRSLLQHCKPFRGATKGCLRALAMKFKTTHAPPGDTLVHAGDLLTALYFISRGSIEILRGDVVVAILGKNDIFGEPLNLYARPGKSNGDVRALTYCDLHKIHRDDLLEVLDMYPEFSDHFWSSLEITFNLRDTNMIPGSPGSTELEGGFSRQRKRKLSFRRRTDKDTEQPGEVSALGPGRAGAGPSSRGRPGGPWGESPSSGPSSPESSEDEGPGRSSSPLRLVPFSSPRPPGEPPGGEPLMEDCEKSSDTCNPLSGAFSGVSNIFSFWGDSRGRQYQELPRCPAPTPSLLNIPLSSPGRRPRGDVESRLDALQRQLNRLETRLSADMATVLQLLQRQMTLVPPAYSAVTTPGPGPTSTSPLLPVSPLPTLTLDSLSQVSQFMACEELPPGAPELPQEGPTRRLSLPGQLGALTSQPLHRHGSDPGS
Experimental: CHO cells stably expressing the transcript of hERG were investigated by the automated whole-cell patch clamp technique, using the QPatch system (Sophion, Ballerup, Denmark). The detailed procedures of the hERG potassium currents assay were described in our previous work. Each cell was received from six escalating concentrations. Each concentration was tested on at least three cells. The reference compound cisapride was applied at the end of the test compound addition.

[3] = tested on: HCT116 cells; experiment: Transwell migration assay; format: cell-based; details: 24 h
Experimental: Transwell migration assays were performed using Transwell® chamber inserts (Costar, Cambridge, MA, USA) with a porous polycarbonate membrane (8 μM pore size).
Transwell migration assays were performed using Transwell® chamber inserts (Costar, Cambridge, MA, USA) with a porous polycarbonate membrane ([…]). Briefly, 1.5 × 10^5 HCT116 cells were added in the top chamber with FBS-free culture media containing 0.2% BSA. A culture medium containing 15% FBS was added to the bottom chamber. […] After incubation for 24 h at 37 °C, the cells were fixed in methanol and stained with 0.1% crystal violet. The cells that had not migrated from the top surface of the filters were removed with cotton. Five randomly selected fields were captured by brightfield microscopy for each well. Migrated cells were quantitated by ImageJ (1.53c). Experiments were repeated at least three times in replicates.

[4] = Liver microsome stability assay; format: in vitro ADME; details: pH 7.4, human liver microsomes 0.2 mg/mL, test compound 1 μM, NADPH
Experimental: Stock solution (10 mM) of each of test compound was prepared in DMSO. The stock solution for each compound was then diluted into 200 μM with acetonitrile. Incubation mixtures were prepared in a total volume of 200 μL with final component concentrations as follows: 0.1 M PBS (pH 7.4), NADPH (2 mM), liver microsomes (0.2 mg/mL), and test compound (1 μM) or positive control. NAPDH was added after a 5 min preincubation of all other components at 37 °C, then pipette-mixed to achieve a homogenous suspension and immediately transferred 20 μL of the incubate as a 0 min sample to wells in a “Quenching” plate, followed by pipette-mixing. At 5, 15, 30, and 60 min, we pipette-mixed the incubate and serially transferred samples of 20 μL of the incubate per time point to wells in a separate “Quenching” plate, followed by pipette-mixing. In “Quenching” plates, 200 μL of acetonitrile was added with IS. The 96 wells were centrifuged at 4000 rpm for 10 min. Then 50 μL of supernatant was mixed with 50 μL of ddH2O and injected into the LC-MS/MS system for analysis.

[5] = target: T2, Mer kinase (Homo sapiens, UniProt Q12866); experiment: Mer kinase inhibitory activity assay (in vitro); format: biochemical; details: ATP 30 uM, enzyme 0.25 nM; means from three independent experiments
T2 sequence (Q12866 21-999): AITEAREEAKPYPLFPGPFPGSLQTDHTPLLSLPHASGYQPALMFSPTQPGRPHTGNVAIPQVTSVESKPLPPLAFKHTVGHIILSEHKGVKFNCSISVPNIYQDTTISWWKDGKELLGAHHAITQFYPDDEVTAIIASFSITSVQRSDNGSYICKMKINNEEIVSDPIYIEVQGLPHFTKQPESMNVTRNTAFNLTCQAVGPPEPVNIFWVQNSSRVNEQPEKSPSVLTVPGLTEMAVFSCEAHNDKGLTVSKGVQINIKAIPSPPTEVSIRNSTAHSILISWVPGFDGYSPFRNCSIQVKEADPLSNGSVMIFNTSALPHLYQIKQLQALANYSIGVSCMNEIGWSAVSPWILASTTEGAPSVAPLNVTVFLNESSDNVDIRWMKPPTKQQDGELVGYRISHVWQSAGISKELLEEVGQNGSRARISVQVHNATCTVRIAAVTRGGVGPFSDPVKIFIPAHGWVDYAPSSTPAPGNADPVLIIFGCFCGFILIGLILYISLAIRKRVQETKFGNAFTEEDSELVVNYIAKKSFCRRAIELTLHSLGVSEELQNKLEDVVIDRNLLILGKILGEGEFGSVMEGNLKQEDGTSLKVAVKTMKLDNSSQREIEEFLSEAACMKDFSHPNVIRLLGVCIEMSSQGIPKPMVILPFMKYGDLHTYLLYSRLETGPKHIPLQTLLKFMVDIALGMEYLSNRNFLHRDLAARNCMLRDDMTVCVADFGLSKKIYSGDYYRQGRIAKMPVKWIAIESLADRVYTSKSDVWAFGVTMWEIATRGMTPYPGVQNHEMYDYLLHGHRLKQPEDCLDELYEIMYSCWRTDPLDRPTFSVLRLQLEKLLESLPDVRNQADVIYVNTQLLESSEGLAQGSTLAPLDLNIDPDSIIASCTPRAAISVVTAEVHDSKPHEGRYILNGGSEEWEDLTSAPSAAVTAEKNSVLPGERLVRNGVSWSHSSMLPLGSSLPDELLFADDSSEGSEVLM
Experimental: The in vitro inhibition assays of all final compounds against Mer and c-Met kinase were performed by Shanghai Bioduro Biological Technology Co., Ltd. (Shanghai, China). We prepared 1× buffer: HEPES 50 mM, MgCl2 10 mM, EGTA 1 mM, NP-40 0.0001%, DTT 2 mM; compound dilution with DMSO. For test compounds, a 100 × final concentration solution was prepared. About 100 nL compounds were transferred to a 384-well plate by using the automated liquid handler. The final DMSO% in the assay is 1%. Enzyme stock solutions were diluted with 1× assay buffer to a concentration of 0.5 nM to make a 2× working solution. […] Substrate solutions were diluted with 1× assay buffer. About 5 μL mix or buffer was added manually to the assay plate (ATP final 30 uM and TK-Sub-Biotin final 2 uM) using a multichannel pipette, spun down at 1000 rpm, and centrifuged for 30 s. After incubating at 30 °C for 60 min, 10 μL of detection solution was added to each well of the assay, mixed briefly with a centrifuge, and equilibrated for another 60 min. The luminescence was recorded using Envision.

[6] = tested on: HCT116 cells; experiment: Antiproliferation assay (CCK-8), HCT116; format: cell-based
Experimental: as §1, with “Cell” for “The antiproliferative activities of the compounds against HepG2, MDA-MB-231, and HCT116 cell lines were tested by the standard CCK-8 method. Cell”

[7] = tested on: HepG2 cells; experiment: Antiproliferation assay (CCK-8), HepG2; format: cell-based
Experimental: as §1

[8] = tested on: HCT116 cells; experiment: TUNEL apoptosis assay; format: cell-based; details: HCT116, 48 h treatment
Experimental: The number of TUNEL-positive cells was counted from 5 non-overlap random fields per group; DAPI (blue). Data are representative of three independent experiments.
The One Step TUNEL Apoptosis Assay Kit (Meilunbio, Dalian, China) was used for studying apoptosis in a dose-dependent manner. HCT116 cells (1.5 × 10^4 cells/well) were cultured in TC-treated glass coverslip-containing plates. […] Next, adhered cells were fixed with 4% paraformaldehyde and permeabilized with 0.3% Triton-X-100. TUNEL staining was performed according to the manufacturer’s instructions. The nuclei of cells were counterstained with the DAPI reagent. Images were taken using an Olympus fluorescence microscope. The ED50 for 18c was calculated with the program GraphPad PRISM 9.5. The assay was performed in triplicate, and each experiment was repeated three times.

[9] = ratio of IC50 values to cabozantinib

CN1CCN(CC(=O)Nc2ccc(Nc3nccc(Oc4ccc(NC(=O)C5(C(=O)Nc6ccc(F)cc6)CC5)cc4)n3)cc2)CC1 [Compound 18c]
IC50 ([1]; Homo sapiens, MDA-MB-231, 72 h, read-out: IC50 antiproliferative MDA-MB0231): 8.9 µM | Antiproliferative activity against MDA-MB-231, times higher than cabozantinib [1, 9]: 3.3 times | IC50 [2]: > 40 µM | Inhibition of HCT116 cell migration vs control [3]: inhibited cell migration; also recorded: significantly inhibited | microsomal CLint at 1 μM ([4]; read-out: CL Human): 60 µL/min/mg | half-life at 1 μM ([4]; read-out: T1/2 Human): 53.1 min | IC50 [5]: 0.0185 ± 0.0023 µM | IC50 ([6]; Homo sapiens, HCT-116, 72 h, read-out: IC50 antiproliferative HCT116): 4.95 µM | Antiproliferative activity against HCT116, times higher than cabozantinib [6, 9]: 1.6 times | IC50 ([7]; Homo sapiens, HepG2, 72 h, read-out: IC50 antiproliferative HepG2): 6.63 µM | Antiproliferative activity against HepG2, times lesser than cabozantinib [7, 9]: 3.8 times | ED50 apoptosis (TUNEL-positive cells) [8]: 10.07 µM
